Data published in US7968720B2, “Secondary amines as renin inhibitors” (Actelion Pharmaceuticals Ltd., priority 2006, dated 2011).
Counter-ions that a name gives are not always drawn.

Biological target: T1, recombinant human renin (Homo sapiens, UniProt P00797)
T1 sequence (P00797 67-406): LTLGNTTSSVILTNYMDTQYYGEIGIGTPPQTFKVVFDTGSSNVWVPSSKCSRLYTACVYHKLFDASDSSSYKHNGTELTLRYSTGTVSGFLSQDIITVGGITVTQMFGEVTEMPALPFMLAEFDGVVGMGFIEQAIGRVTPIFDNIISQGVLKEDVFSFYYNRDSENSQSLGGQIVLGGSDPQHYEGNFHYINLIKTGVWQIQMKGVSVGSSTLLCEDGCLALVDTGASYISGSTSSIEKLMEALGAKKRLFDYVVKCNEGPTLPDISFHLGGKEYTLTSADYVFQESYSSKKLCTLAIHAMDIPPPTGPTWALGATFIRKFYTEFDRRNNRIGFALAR
Assay: Primary renin inhibition assay: IC50 in buffer, 384 well MTP (AngI measured by EIA)
Assay type: biochemical
Settings: human tetradecapeptide (1-14) substrate, incubated at 37° C. for 3 h, AngI quantified by EIA
Procedure: 1. Enzyme Immuno Assay (EIA) to Estimate AngI Accumulation and Renin Inhibition
1.1 Preparation of AngI-BSA Conjugate
1.3 mg (1 μmol) of AngI [1-10 (Bachem, H-1680)] and 17 mg (0.26 μmol) of BSA (Fluka, 05475) were dissolved in 4 mL of 0.1M phosphate buffer, pH 7.4, after which 2 mL of a 1:100 dilution of glutaraldehyde in H2O (Sigma G-5882) was added dropwise. The mixture was incubated overnight at 4° C., then dialyzed against 2 liters of 0.9% NaCl, twice for 4 h at rt, followed by dialysis against 2 liters of PBS 1× overnight at rt. The solution was then filtered with a Syringe filter, 0.45 μm (Nalgene, Cat. No. 194-2545). The conjugate can be stored in polypropylene tubes in 0.05% sodium azide at 4° C. for at least 12 months.
1.2 Preparation of BSA-AngI Coated MTP
Microtiter plates (MPT384, MaxiSorp™, Nunc) were incubated overnight at 4° C. with 80 μl of AngI (1-10)/BSA conjugate, diluted 1:100'000 in PBS 1× in a teflon beaker (exact dilution dependent on batch of conjugate), emptied, filled with 90 μl of blocking solution [0.5% BSA (Sigma A-2153) in PBS 1×, 0.02% NaN3], and incubated for at least 2 h at rt, or overnight at 4° C. 96 well MTP (MaxiSorp™, Nunc) were coated with 200 μl conjugate and blocked with 250 μl blocking solution as above, except that the blocking solution contained 3% BSA. The plates can be stored in blocking solution at 4° C. for 1 month.
1.3 AngI-EIA in 384 Well MTP
The AngI (1-10)/BSA coated MTP were washed 3 times with wash buffer (PBS 1×, 0.01% Tween 20) and filled with 75 μl of primary antibody solution (anti-AngI antiserum, pre-diluted 1:10 in horse serum), diluted to a final concentration of 1:100'000 in assay buffer (PBS 1×, 1 mM EDTA, 0.1% BSA, pH 7.4). 5 μl of the renin reaction (or standards in assay buffer) (see below) were added to the primary antibody solution and the plates were incubated overnight at 4° C. After the incubation the plates were washed 3 times with wash buffer and incubated with secondary antibody [anti-rabbit IgG, linked to horseradish peroxidase (Amersham Bioscience, NA 934V), diluted 1:2'000 in wash buffer] for 2 h at rt. The plates were washed 3 times with wash buffer and then incubated for 1 h at rt with substrate solution [1.89 mM ABTS (2,2′-azino-di-(3-ethyl-benzthiazolinsulfonate)] (Roche Diagnostics, 102 946) and 2.36 mM H2O2 [30%, (Fluka, 95300] in substrate buffer (0.1M sodium acetate, 0.05M sodium dihydrogen phosphate, pH 4.2). The OD of the plate was read at 405 nm in a microplate reader (FLUOStar Optima from BMG). The production of AngI during the renin reaction was quantified by comparing the OD of the sample with the OD of a standard curve of AngI(1-10), measured in parallel.
2. Primary Renin Inhibition Assay: IC50 in Buffer, 384 Well MTP
The renin assay was adapted from an assay described before (Fischli W. et al., Hypertension, 1991, 18:22-31) and consists of two steps: in the first step, recombinant human renin is incubated with its substrate (commercial human tetradecapeptide renin substrate) to create the product Angiotensin I (AngI). In the second step, the accumulated AngI is measured by an immunological assay (enzyme immuno assay, EIA). The detailed description of this assay is found below. The EIA is very sensitive and well suited for renin activity measurements in buffer or in plasma. Due to the low concentration of renin used in this assay (2 fmol per assay tube or 10 pM) it is possible to measure inhibitor affinities in this primary assay down to low pM concentration.
Recombinant human renin (3 pg/μl) in assay buffer (PBS 1×, 1 mM EDTA, 0.1% BSA, pH 7.4), human tetradecapeptide (1-14) substrate (Bachem, M-1120) [5 μM in 10 mM HCl], hydroxyquinoline sulfate (Fluka, 55100) [30 mM in H2O] and assay buffer were premixed at 4° C. at a ratio of 100:30:10:145. 47.5 μl per well of this premix was transferred into polypropylene plates (MTP384, Nunc). […]

`COCCCc1ccc(Cl)c(CN(C(=O)C2=C(c3ccc(CCOc4c(Cl)cc(C)cc4Cl)cc3)C[C@@H]3CNC[C@H]2N3)C2CC2)c1` (racemic) [Example 1, (rac.)-(1R*,5S*)-7-{4-[2-(2,6-Dichloro-4-methyl-phenoxy)-ethyl]-phenyl}-3,9-diaza-bicyclo[3.3.1]non-6-ene-6-carboxylic acid [2-chloro-5-(3-methoxy-propyl)-benzyl]-cyclopropyl-amide] and `COCCCc1ccc(Cl)c(CN(C(=O)C2=C(c3ccc(OCCOc4c(Cl)cc(C)cc4Cl)cc3)C[C@@H]3CNC[C@H]2N3)C2CC2)c1` [Example 4, (1R,5S)-7-{4-[2-(2,6-Dichloro-4-methyl-phenoxy)-ethoxy]-phenyl}-3,9-diaza-bicyclo[3.3.1]non-6-ene-6-carboxylic acid [2-chloro-5-(3-methoxy-propyl)-benzyl]-cyclopropyl-amide] are the same in IC50: 0.2 nM for the first, 0.2 nM for the second.

First: COCCCc1ccc(Cl)c(CN(C(=O)C2=C(c3ccc(OCCOc4c(Cl)cc(C)cc4Cl)cc3)C[C@@H]3CN(C(=N)N)C[C@H]2N3)C2CC2)c1 [Example 11, (1R,5S)-3-Carbamimidoyl-7-{4-[2-(2,6-dichloro-4-methyl-phenoxy)-ethoxy]-phenyl}-3,9-diaza-bicyclo[3.3.1]non-6-ene-6-carboxylic acid cyclopropyl-[2-chloro-5-(3-methoxy-propyl)-benzyl]-amide Hydrochloride Salt]
Second: COCCCc1ccc(Cl)c(CN(C(=O)C2=C(c3ccc(OCCOc4c(Cl)cc(C)cc4Cl)cc3)C[C@@H]3CN(C(=O)NC4CC4)C[C@H]2N3)C2CC2)c1 [Example 13, (1R,5S)-7-{4-[2-(2,6-Dichloro-4-methyl-phenoxy)-ethoxy]-phenyl}-3,9-diaza-bicyclo[3.3.1]non-6-ene-3,6-dicarboxylic acid 3-cyclopropylamide 6-{cyclopropyl-[2-chloro-5-(3-methoxy-propyl)-benzyl]-amide}]
The IC50 of the first is 2.7-fold lower: 0.3 nM for the first, 0.8 nM for the second. The first is the more potent here.

Going from `COCCCc1ccc(Cl)c(CN(C(=O)C2=C(c3ccc(OCCOc4c(Cl)cc(C)cc4Cl)nc3)CCNC2)C2CC2)c1` [Example 18, 6-[2-(2,6-Dichloro-4-methyl-phenoxy)-ethoxy]-1′,2′,5′,6′-tetrahydro-[3,4′]bipyridinyl-3′-carboxylic acid [2-chloro-5-(3-methoxy-propyl)-benzyl]-cyclopropyl-amide] to `COCCCc1cc(CN(C(=O)C2=C(c3ccc(OCCOc4c(Cl)cc(C)cc4Cl)nc3)C[C@@H]3CNC[C@H]2N3)C2CC2)c(Cl)cn1` [Example 42, (1R,5S)-7-{6-[2-(2,6-Dichloro-4-methyl-phenoxy)-ethoxy]-pyridin-3-yl}-3,9-diaza-bicyclo[3.3.1]non-6-ene-6-carboxylic acid [5-chloro-2-(3-methoxy-propyl)-pyridin-4-ylmethyl]-cyclopropyl-amide], the IC50 falls from 0.5 nM to 0.26 nM (1.9-fold).

Compared with `COCCc1ccc(Cl)c(CN(C(=O)[C@@H]2[C@@H](c3ccc(OCCOc4c(Cl)cc(C)cc4Cl)cc3)C[C@@H]3CC[C@H]2N3)C2CC2)c1` [Example 26, (1R,2R,3S,5S)-3-{4-[2-(2,6-Dichloro-4-methyl-phenoxy)-ethoxy]-phenyl}-8-aza-bicyclo[3.2.1]octane-2-carboxylic acid [2-chloro-5-(2-methoxy-ethyl)-benzyl]-cyclopropyl-amide], `COCCc1ccc(Cl)c(CN(C(=O)[C@@H]2[C@@H](c3ccc(OCc4cc(-c5c(F)ccc(F)c5Cl)no4)cc3)C[C@@H]3CC[C@H]2N3)C2CC2)c1` [Example 60, (1R,2R,3S,5S)-3-{4-[3-(2-Chloro-3,6-difluoro-phenyl)isoxazol-5-ylmethoxy]-phenyl}-8-aza-bicyclo[3.2.1]octane-2-carboxylic acid [2-chloro-5-(2-methoxy-ethyl)benzyl]-cyclopropyl-amide] is 1.9-fold higher in IC50: 0.14 nM for the first, 0.26 nM for the second. The first is the more potent here.

Going from `COCCCc1cc(CN(C(=O)C2=C(c3ccc(OCc4cc(-c5c(F)ccc(F)c5Cl)no4)cc3)CCNC2)C2CC2)c(Cl)cn1` [Example 34, 4-{4-[3-(2-Chloro-3,6-difluoro-phenyl)-isoxazol-5-ylmethoxy]-phenyl}-1,2,5,6-tetrahydro-pyridine-3-carboxylic acid [5-chloro-2-(3-methoxy-propyl)-pyridin-4-ylmethyl]-cyclopropyl-amide] to `COCCCc1ccc(Cl)c(CN(C(=O)C2=C(c3ccc(OCc4cc(-c5c(F)ccc(F)c5Cl)no4)cc3)C[C@@H]3CN(C(C)=O)C[C@H]2N3)C2CC2)c1` [Example 50, (1R,5S)-3-Acetyl-7-{4-[3-(2-chloro-3,6-difluoro-phenyl)-isoxazol-5-ylmethoxy]-phenyl}-3,9-diaza-bicyclo[3.3.1]non-6-ene-6-carboxylic acid [2-chloro-5-(3-methoxy-propyl)benzyl]-cyclopropyl-amide], the IC50 rises from 0.1 nM to 0.24 nM (2.4-fold).

Compared with `Cc1cc(Cl)c(O[C@@H]2CCN(c3ccc([C@H]4CCNC[C@@H]4C(=O)N(Cc4cc(CNC(=O)CC(F)(F)F)ccc4Cl)C4CC4)cn3)C2)c(Cl)c1` [Example 67, (3′R,4′S)-6-[(R)-3-(2,6-Dichloro-4-methyl-phenoxy)-pyrrolidin-1-yl]-1′,2′,3′,4′,5′,6′-hexahydro-[3,4′]bipyridinyl-3′-carboxylic acid {2-chloro-5-[(3,3,3-trifluoro-propionylamino)-methyl]-benzyl}-cyclopropyl-amide], `Cc1cc(Cl)c(O[C@@H]2CCN(c3ccc([C@H]4CCNC[C@@H]4C(=O)N(Cc4cc(CNC(=O)C5CC5)ccc4Cl)C4CC4)cn3)C2)c(Cl)c1` [Example 93, (3′R,4′S)-6-[(R)-3-(2,6-Dichloro-4-methyl-phenoxy)-pyrrolidin-1-yl]-1′,2′,3′,4′,5′,6′-hexahydro-[3,4′]bipyridinyl-3′-carboxylic acid {2-chloro-5-[(cyclopropanecarbonyl-amino)-methyl]-benzyl}-cyclopropyl-amide] is 1.7-fold lower in IC50: 0.63 nM for the first, 0.38 nM for the second. The second is the more potent here.

`O=C([C@H]1CNCC[C@@H]1c1ccc(OCc2cc(-c3c(F)ccc(F)c3Cl)no2)cc1)N(Cc1cc(CNCC(F)F)ccc1Cl)C1CC1` [Example 77, (3R,4S)-4-{4-[3-(2-Chloro-3,6-difluoro-phenyl)isoxazol-5-ylmethoxy]-phenyl}-piperidine-3-carboxylic acid {2-chloro-5-[(2,2-difluoro-ethylamino)-methyl]-benzyl}-cyclopropyl-amide] and `O=C(NCc1ccc(Cl)c(CN(C(=O)[C@H]2CNCC[C@@H]2c2ccc(OCc3cc(-c4c(F)ccc(F)c4Cl)no3)cc2)C2CC2)c1)C1CC1` [Example 83, (3R,4S)-4-{4-[3-(2-Chloro-3,6-difluoro-phenyl)-isoxazol-5-ylmethoxy]-phenyl}-piperidine-3-carboxylic acid {2-chloro-5-[(cyclopropanecarbonyl-amino)-methyl]-benzyl}-cyclopropyl-amide] are within 1.5-fold of each other in IC50: 0.22 nM for the first, 0.18 nM for the second.
